≈ marks a conversion by molar mass, not a printed value.
How the values were obtained:
P388 = experiment: Concentration required to inhibit the growth of mouse leukemia (P388) cell lines by 50% on 72 h continuous exposure; type: functional; details: P388, 72 h
PC-6 = experiment: Concentration required to inhibit the growth of human lung cancer (PC-6)cell lines by 50% on 72 hr continuous exposure; type: functional; details: PC-6, 72 h

| GI50 (P388) | SMILES | GI50 (PC-6) |
| --- | --- | --- |
| 1870 ng/mL (≈ 2.16 µM) | CC(=O)O[C@@]12COC1C[C@H](O)[C@@]1(C)C(=O)[C@H](CCC(=O)O)C3=C(C)[C@@H](OC(=O)[C@H](O)[C@@H](NC(=O)OC(C)(C)C)c4ccccc4)C[C@@](O)([C@@H](OC(=O)c4ccccc4)[C@@H]12)C3(C)C (stereo partly drawn) | 934 ng/mL (≈ 1.08 µM) |
| 4.31 ng/mL (≈ 0.00483 µM) | CCOC(=O)CC[C@H]1C(=O)[C@]2(C)[C@@H](O)CC3OC[C@@]3(OC(C)=O)[C@H]2[C@H](OC(=O)c2ccccc2)[C@]2(O)C[C@H](OC(=O)[C@H](O)[C@@H](NC(=O)OC(C)(C)C)c3ccccc3)C(C)=C1C2(C)C (stereo partly drawn) | 1.35 ng/mL (≈ 0.00151 µM) |
| 1520 ng/mL (≈ 1.79 µM) | CC(=O)O[C@@]12COC1C[C@H](O)[C@@]1(C)C(=O)[C@H](CCCN)C3=C(C)[C@@H](OC(=O)[C@H](O)[C@@H](NC(=O)OC(C)(C)C)c4ccccc4)C[C@@](O)([C@@H](OC(=O)c4ccccc4)[C@@H]12)C3(C)C (stereo partly drawn) | 236 ng/mL (≈ 0.278 µM) |
| 71.8 ng/mL (≈ 0.0806 µM) | CC(=O)NCCC[C@H]1C(=O)[C@]2(C)[C@@H](O)CC3OC[C@@]3(OC(C)=O)[C@H]2[C@H](OC(=O)c2ccccc2)[C@]2(O)C[C@H](OC(=O)[C@H](O)[C@@H](NC(=O)OC(C)(C)C)c3ccccc3)C(C)=C1C2(C)C (stereo partly drawn) | 10.5 ng/mL (≈ 0.0118 µM) |
| 18.4 ng/mL (≈ 0.0218 µM) | CC(=O)O[C@@]12COC1C[C@H](O)[C@@]1(C)C(=O)[C@H](CCC#N)C3=C(C)[C@@H](OC(=O)[C@H](O)[C@@H](NC(=O)OC(C)(C)C)c4ccccc4)C[C@@](O)([C@@H](OC(=O)c4ccccc4)[C@@H]12)C3(C)C (stereo partly drawn) | 0.681 ng/mL (≈ 0.000806 µM) |
| 15.5 ng/mL (≈ 0.0182 µM) | CC(=O)O[C@@]12COC1C[C@H](O)[C@@]1(C)C(=O)[C@H](CCCO)C3=C(C)[C@@H](OC(=O)[C@H](O)[C@@H](NC(=O)OC(C)(C)C)c4ccccc4)C[C@@](O)([C@@H](OC(=O)c4ccccc4)[C@@H]12)C3(C)C (stereo partly drawn) | 0.777 ng/mL (≈ 0.000914 µM) |
| 7.12 ng/mL (≈ 0.00826 µM) | CC(=O)CC[C@H]1C(=O)[C@]2(C)[C@@H](O)CC3OC[C@@]3(OC(C)=O)[C@H]2[C@H](OC(=O)c2ccccc2)[C@]2(O)C[C@H](OC(=O)[C@H](O)[C@@H](NC(=O)OC(C)(C)C)c3ccccc3)C(C)=C1C2(C)C (stereo partly drawn) | 0.266 ng/mL (≈ 0.000309 µM) |
| 6.74 ng/mL | CC(=O)O[C@@]12CO[C@@H]1C[C@H](O)[C@@]1(C)C(=O)[C@H](O)C3=C(C)[C@@H](OC(=O)[C@H](O)[C@@H](NC(=O)OC(C)(C)C)c4ccccc4)C[C@@](O)([C@@H](OC(=O)c4ccccc4)[C@H]21)C3(C)C.O.O.O [DOCETAXEL] | 1.13 ng/mL |

| SMILES | GI50 (P388) | GI50 (PC-6) |
| --- | --- | --- |
| COC(=O)CC[C@H]1C(=O)[C@]2(C)[C@@H](O)CC3OC[C@@]3(OC(C)=O)[C@H]2[C@H](OC(=O)c2ccccc2)[C@]2(O)C[C@H](OC(=O)[C@H](O)[C@@H](NC(=O)OC(C)(C)C)c3ccccc3)C(C)=C1C2(C)C (stereo partly drawn) | 3.3 ng/mL (≈ 0.00376 µM) | 0.771 ng/mL (≈ 0.000878 µM) |
